According to patent publication US8952024B2, “Herbicidal pyrimidone derivatives” (E I du Pont de Nemours and Company, priority 2009, dated 2015):
Where two headings read alike, the source gives them in different places.

Experiments:
Assay in all cases: Test A pre-/postemergence plant response
Type in all cases: in vivo
[1] = tested on: giant foxtail (Setaria faberii); conditions: Setaria faberi, 240 h; for pest or weed control at 125 g/ha: 125 g ai/ha; for pest or weed control at 500 g/ha: 500 g ai/ha
Summary of the method: (§1)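 Greenhouse trial, ~10 days. Soil (loam/sand) sprayed preemergence after seeding; emerged plants (1–2 leaf, 2–10 cm) sprayed postemergence in parallel. Response = visual injury vs untreated control, 0–100.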

[2] = tested on: velvetleaf (Abutilon theophrasti); conditions: Abutilon theophrasti, 240 h; for pest or weed control at 125 g/ha: 125 g ai/ha; for pest or weed control at 500 g/ha: 500 g ai/ha
Summary of the method: as §1

corn (Zea mays) = conditions: Zea mays, 240 h; for Corn plant response rating (crop injury, 0 = no effect, 100 = complete kill) at 500 g/ha: 500 g ai/ha
Summary of the method: as §1

[3] = tested on: pigweed (Amaranthus retroflexus); conditions: Amaranthus retroflexus, 240 h; for pest or weed control at 125 g/ha: 125 g ai/ha; for pest or weed control at 500 g/ha: 500 g ai/ha
Summary of the method: as §1

[4] = tested on: wheat (Triticum aestivum); conditions: Triticum aestivum, 240 h; for plant injury at 125 g/ha: 125 g ai/ha; for plant injury at 500 g/ha: 500 g ai/ha
Summary of the method: as §1

[5] = tested on: large crabgrass (Digitaria sanguinalis); conditions: Digitaria sanguinalis, 240 h; for pest or weed control at 125 g/ha: 125 g ai/ha; for pest or weed control at 500 g/ha: 500 g ai/ha
Summary of the method: as §1

[6] = tested on: barnyardgrass (Echinochloa crus-galli); conditions: Echinochloa crus-galli, 240 h; for pest or weed control at 125 g/ha: 125 g ai/ha
Summary of the method: as §1

O=C1CCCC(O)=C1C(=O)c1cnc(-c2ccccc2)n(-c2ccccc2)c1=O [Compound 2, 5-[(2-hydroxy-6-oxo-1-cyclohexen-1-yl)carbonyl]-2,3-diphenyl-4(3H)-pyrimidinone]
pest or weed control at 125 g/ha ([1]; post-emergence, Postemergence, visual injury, 0 to 100 scale (0 no effect, 100 complete control), approx. ten days, read-out: Foxtail, Giant plant response rating): 90%
pest or weed control at 500 g/ha ([1]; post-emergence, Postemergence, 0 to 100 scale, 0 = no effect, 100 = complete control, approx. ten days, read-out: Plant response rating, Foxtail, Giant): 100%
pest or weed control at 125 g/ha ([1]; pre-emergence, Preemergence, 0 to 100 scale, 0 = no effect, 100 = complete control, read-out: Plant response rating, Foxtail, Giant): 50%
pest or weed control at 500 g/ha ([1]; pre-emergence, Preemergence, visual injury, 0 to 100 scale (0 no effect, 100 complete control), approx. ten days, read-out: Plant response rating, Foxtail, Giant): 90%
pest or weed control at 125 g/ha ([2]; post-emergence, Postemergence, visual injury, 0 to 100 scale (0 no effect, 100 complete control), approx. ten days, read-out: Velvetleaf plant response rating): 100%
pest or weed control at 500 g/ha ([2]; post-emergence, Postemergence, 0 to 100 scale, 0 = no effect, 100 = complete control, approx. ten days, read-out: Plant response rating, Velvetleaf): 100%
pest or weed control at 125 g/ha ([2]; pre-emergence, Preemergence, 0 to 100 scale, 0 = no effect, 100 = complete control, read-out: Plant response rating, Velvetleaf): 60%
pest or weed control at 500 g/ha ([2]; pre-emergence, Preemergence, visual injury, 0 to 100 scale (0 no effect, 100 complete control), approx. ten days, read-out: Plant response rating, Velvetleaf): 100%
plant injury at 125 g/ha (corn (Zea mays); post-emergence, Postemergence, 125 g ai/ha, visual injury, 0 to 100 scale (0 no effect, 100 complete control), approx. ten days, read-out: Corn plant response rating): 30%
Corn plant response rating (crop injury, 0 = no effect, 100 = complete kill) at 500 g/ha (corn (Zea mays); post-emergence, Postemergence, 0 to 100 scale, 0 = no effect, 100 = complete control, approx. ten days): 90%
Corn plant response rating (crop injury, 0 = no effect, 100 = complete kill) at 125 g/ha (corn (Zea mays); pre-emergence, Preemergence, 125 g ai/ha, 0 to 100 scale, 0 = no effect, 100 = complete control): 0%
Corn plant response rating (crop injury, 0 = no effect, 100 = complete kill) at 500 g/ha (corn (Zea mays); pre-emergence, Preemergence, visual injury, 0 to 100 scale (0 no effect, 100 complete control), approx. ten days): 0%
pest or weed control at 125 g/ha ([3]; post-emergence, Postemergence, visual injury, 0 to 100 scale (0 no effect, 100 complete control), approx. ten days, read-out: Pigweed plant response rating): 100%
pest or weed control at 500 g/ha ([3]; post-emergence, Postemergence, 0 to 100 scale, 0 = no effect, 100 = complete control, approx. ten days, read-out: Plant response rating, Pigweed): 100%
pest or weed control at 125 g/ha ([3]; pre-emergence, Preemergence, 0 to 100 scale, 0 = no effect, 100 = complete control, read-out: Plant response rating, Pigweed): 100%
pest or weed control at 500 g/ha ([3]; pre-emergence, Preemergence, visual injury, 0 to 100 scale (0 no effect, 100 complete control), approx. ten days, read-out: Plant response rating, Pigweed): 100%
plant injury at 125 g/ha ([4]; post-emergence, Postemergence, visual injury, 0 to 100 scale (0 no effect, 100 complete control), approx. ten days, read-out: Wheat plant response rating): 0%
plant injury at 500 g/ha ([4]; post-emergence, Postemergence, 0 to 100 scale, 0 = no effect, 100 = complete control, approx. ten days, read-out: Plant response rating, Wheat): 20%
plant injury at 125 g/ha ([4]; pre-emergence, Preemergence, 0 to 100 scale, 0 = no effect, 100 = complete control, read-out: Plant response rating, Wheat): 0%
plant injury at 500 g/ha ([4]; pre-emergence, Preemergence, visual injury, 0 to 100 scale (0 no effect, 100 complete control), approx. ten days, read-out: Plant response rating, Wheat): 0%
pest or weed control at 125 g/ha ([5]; post-emergence, Postemergence, visual injury, 0 to 100 scale (0 no effect, 100 complete control), approx. ten days, read-out: Crabgrass, Large plant response rating): 90%
pest or weed control at 500 g/ha ([5]; post-emergence, Postemergence, 0 to 100 scale, 0 = no effect, 100 = complete control, approx. ten days, read-out: Plant response rating, Crabgrass, Large): 100%
pest or weed control at 125 g/ha ([5]; pre-emergence, Preemergence, 0 to 100 scale, 0 = no effect, 100 = complete control, read-out: Plant response rating, Crabgrass, Large): 80%
pest or weed control at 500 g/ha ([5]; pre-emergence, Preemergence, visual injury, 0 to 100 scale (0 no effect, 100 complete control), approx. ten days, read-out: Plant response rating, Crabgrass, Large): 100%
pest or weed control at 125 g/ha ([6]; post-emergence, Postemergence, visual injury, 0 to 100 scale (0 no effect, 100 complete control), approx. ten days, read-out: Barnyardgrass plant response rating): 100%
pest or weed control at 500 g/ha ([6]; post-emergence, Postemergence, 500 g ai/ha, 0 to 100 scale, 0 = no effect, 100 = complete control, approx. ten days, read-out: Plant response rating, Barnyardgrass): 100%
pest or weed control at 125 g/ha ([6]; pre-emergence, Preemergence, 0 to 100 scale, 0 = no effect, 100 = complete control, read-out: Plant response rating, Barnyardgrass): 10%
